Results: patent EP3800188A1, “SUBSTITUTED PYRAZOLOPYRIMIDINES AS IRAK4 INHIBITORS” (Bayer AG, priority 2019, dated 2021)

Assays:
[1] = Metabolic stability in human liver microsomes; details: 1 µM compound; for CLblood, human microsomes: hepatic in vivo blood clearance calculated with well stirred liver model, '(stable)' given beside < 0.01; for Fmax, human microsomes: maximal oral bioavailability calculated with well stirred liver model, 0.5 mg/mL protein, '(stable)' given beside 100
Procedure: The in vitro metabolic stability of test compounds was determined by incubating them at 1 µM in a suspension liver microsomes in 100 mM phosphate buffer, pH7.4 (NaH2PO4 x H2O + Na2HPO4 x 2H2O) and at a protein concentration of 0.5 mg/mL at 37° C. The microsomes were activated by adding a co-factor mix containing 8 mM Glukose-6-Phosphat, 4 mM MgCl2, 0.5 mM NADP and 1 IU/mL G-6-P-Dehydrogenase in phosphate buffer, pH 7.4. The metabolic assay was started shortly afterwards by adding the test compound to the incubation at a final volume of 1 mL. Organic solvent in the incubations was limited to ≤0.01 % dimethylsulfoxide (DMSO) and ≤1% acetonitril. During incubation, the microsomal suspensions were continuously shaken at 580 rpm, and aliquots were taken at 2, 8, 16, 30, 45 and 60 min, to which equal volumes of cold methanol were immediately added. Samples were frozen at -20° C over night, subsequently centrifuged for 15 min at 3000 rpm and the supernatant was analyzed with an Agilent 1200 HPLC-system with LCMS/MS detection.
The half-life of a test compound was determined from the concentration-time plot. From the half-life the intrinsic clearances were calculated. Together with the additional parameters liver blood flow, specific liver weight and microsomal protein content the hepatic in vivo blood clearance (CL) and the maximal oral bioavailability (Fmax) were calculated using the "well stirred" liver model. The following parameter values were used: Liver blood flow - 1.32 L/h/kg (human), 2.1 L/h/kg (dog); specific liver weight - 21 g/kg (human), 39 g/kg (dog); microsomal protein content - 40 mg/g.

human IRAK4 = target: T1, human IRAK4 (Homo sapiens, UniProt Q9NWZ3); test: Human IRAK4 kinase activity inhibition assay (IRAK4 TR-FRET assay); type: biochemical; details: 1 mM ATP, GST-human IRAK4, average or median values
T1 construct: GST (N); made in house; host or cells: baculovirus-infected Hi5 (BTI-TN-5B1-4) insect cells
T1 sequence (Q9NWZ3 1-460): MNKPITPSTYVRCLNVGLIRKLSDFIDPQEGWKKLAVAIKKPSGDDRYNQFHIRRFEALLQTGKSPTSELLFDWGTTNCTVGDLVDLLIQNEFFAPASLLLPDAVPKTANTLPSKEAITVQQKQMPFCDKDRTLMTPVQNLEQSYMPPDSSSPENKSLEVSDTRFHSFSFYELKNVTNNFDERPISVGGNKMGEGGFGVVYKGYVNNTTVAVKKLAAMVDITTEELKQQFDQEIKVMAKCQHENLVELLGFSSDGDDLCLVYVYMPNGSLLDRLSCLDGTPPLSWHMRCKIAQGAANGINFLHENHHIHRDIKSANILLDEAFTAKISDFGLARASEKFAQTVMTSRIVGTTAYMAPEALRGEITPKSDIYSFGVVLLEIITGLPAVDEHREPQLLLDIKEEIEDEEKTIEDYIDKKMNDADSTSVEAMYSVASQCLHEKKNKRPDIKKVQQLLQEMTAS
How it was run: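 Signal was the 665/620 nm emission ratio from a europium anti-mouse-IgG, anti-phosphoserine antibody and streptavidin-XL665 complex formed over 1 h at 22°C. It was scaled between no-enzyme (100%) and no-compound (0%) wells. Beforehand, compounds (20 µM down to 0.073 nM, 11 points) sat 15 min with roughly 0.2 nM insect-cell-expressed GST-human IRAK4 before phosphorylation of a biotinylated peptide substrate.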

Row | SMILES | CLblood, human microsomes [1] | Fmax, human microsomes [1] | IC50 (human IRAK4)
1 | CS(=O)(=O)N1CC(Nc2nc(N3CCC(C4(N)CC4)CC3)c3cnn(-c4cccc(C(F)F)c4)c3n2)C1 [II-20, 4-[4-(1-aminocyclopropyl)piperidin-1-yl]-1-[3-(difluoromethyl)phenyl]-N-[1-(methylsulfonyl)azetidin-3-yl]-1H-pyrazolo[3,4-d]pyrimidin-6-amine] | 0.04 L/h/kg | 97% | 1.39 nM
2 | CC1(N2CCOCC2)CN(c2nc(N[C@H]3C[C@H](S(C)(=O)=O)C3)nc3c2cnn3-c2cccc(C(F)F)c2)C1 [II-21, 1-[3-(difluoromethyl)phenyl]-4-[3-methyl-3-(morpholin-4-yl)azetidin-1-yl]-N-[trans-3-(methylsulfonyl)cyclobutyl]-1H-pyrazolo[3,4-d]pyrimidin-6-amine] | 0.07 L/h/kg | 95% | 1.8 nM
3 | O[C@H]1C[C@@H](Nc2nc(N3CC(N4CCOCC4)C3)c3cnn(-c4cccc(C(F)F)c4)c3n2)C1 [II-24, cis-3-({1-[3-(difluoromethyl)phenyl]-4-[3-(morpholin-4-yl)azetidin-1-yl]-1H-pyrazolo[3,4-d]pyrimidin-6-yl}amino)cyclobutanol] | < 0.01 (stable) L/h/kg | 100 (stable) % | 5.65 nM
4 | O=C1CN(C2CN(c3nc(N[C@H]4C[C@H](O)C4)nc4c3cnn4-c3cccc(C(F)F)c3)C2)CCN1 [II-27, 4-(1-{1-[3-(difluoromethyl)phenyl]-6-[(trans-3-hydroxycyclobutyl)amino]-1H-pyrazolo[3,4-d]pyrimidin-4-yl}azetidin-3-yl)piperazin-2-one] | < 0.01 (stable) L/h/kg | 100 (stable) % | 4.75 nM
5 | CCS(=O)(=O)N1CC(Nc2nc(N3CCC(C(C)(C)O)CC3)c3cnn(-c4cccc(C(F)F)c4)c3n2)C1 [II-31, 2-[1-(1-[3-(difluoromethyl)phenyl]-6-{[1-(ethylsulfonyl)azetidin-3-yl]amino}-1H-pyrazolo[3,4-d]pyrimidin-4-yl)piperidin-4-yl]propan-2-ol] | 0.29 L/h/kg | 78% | 9.22 nM
6 | CS(=O)(=O)[C@H]1C[C@H](Nc2nc(N3CC[C@@H](O)C3)c3cnn(-c4cccc(C(F)F)c4)c3n2)C1 [II-34, (3R)-1-(1-[3-(difluoromethyl)phenyl]-6-{[(1r,3R)-3-(methylsulfonyl)cyclobutyl]amino}-1H-pyrazolo[3,4-d]pyrimidin-4-yl)pyrrolidin-3-ol] | 0.07 L/h/kg | 95% | 3.49 nM
7 | C[C@@]1(O)CCN(c2nc(N[C@H]3C[C@H](S(C)(=O)=O)C3)nc3c2cnn3-c2cccc(C(F)F)c2)C1 [II-35, (3R)-1-(1-[3-(difluoromethyl)phenyl]-6-{[(1r,3R)-3-(methylsulfonyl)cyclobutyl]amino}-1H-pyrazolo[3,4-d]pyrimidin-4-yl)-3-methylpyrrolidin-3-ol] | 0.10 L/h/kg | 93% | 6.8 nM
8 | CS(=O)(=O)N1CC(Nc2nc(N3CCC(C4(N)CC4)CC3)c3cnn(-c4cccc(OC(F)F)c4)c3n2)C1 [IV-3, 4-[4-(1-aminocyclopropyl)piperidin-1-yl]-1-[3-(difluoromethoxy)phenyl]-N-[1-(methylsulfonyl)azetidin-3-yl]-1H-pyrazolo[3,4-d]pyrimidin-6-amine] | 0.14 L/h/kg | 89% | 6.61 nM
9 | CC(C)(O)CC1CN(c2nc(N[C@H]3C[C@H](S(C)(=O)=O)C3)nc3c2cnn3-c2cccc(OC(F)F)c2)C1 [IV-4, 1-[1-(1-[3-(difluoromethoxy)phenyl]-6-{[trans-3-(methylsulfonyl)cyclobutyl]amino}-1H-pyrazolo[3,4-d]pyrimidin-4-yl)azetidin-3-yl]-2-methylpropan-2-ol] | 0.55 L/h/kg | 58% | 4.78 nM
